Legend:
IL-6 (Interleukin-6) = test: IL-6 production by ELISA in UVB-irradiated HaCaT keratinocytes; format: cell-based; conditions: for reduced IL-6 levels: 10 µM (highest concentration tested), 4 h pretreatment, UVB 50 mJ/cm^2, 24 h incubation
Procedure: For the evaluation of anti-inflammatory activity (Figure 2), HaCaT keratinocytes were pretreated for 4 h with the compounds morin (A), morin oxime obtained in Example 1 (B) and morin semicarbazone obtained in Example 1 (C) (2.5, 5 and 10 µM). They were then irradiated with UVB radiation at 50 mJ/cm^2, incubated for 24 h and IL-6 (Interleukin-6) production was assessed by ELISA. Results were expressed as pg/mL and bars represent ± SEM (n=5). […] Thus, it is worth noting that at the highest concentration tested (10 µM), morin oxime reduced IL-6 levels by 45% (Figure 2B) and morin semicarbazone by 28% (Figure 2C), compared to morin, with which a decrease of only 16% was observed (Figure 2A).
Finally, the combination of morin or the morin semicarbazone derivative from Example 1 with fucoxanthin induced a decrease in IL-6 production at all concentrations tested in a 1:1 proportion. It is worth mentioning that this reduction was more notable with the fucoxanthin+morin semicarbazone mixture at the 5-5 µM and 10-10 µM combinations (42% reduction) (Figure 6C) than with fucoxanthin+morin (38% reduction) (Figure 6B). […] The results were expressed as a percentage with respect to the irradiated control cells and the bars represented mean ± SEM (n = 4).

ROS = test: Intracellular ROS (dichlorodihydrofluorescein-diacetate technique) in UVB-irradiated HaCaT cells; format: cell-based
Procedure: For the evaluation of the antioxidant activity of morin semicarbazone obtained in Example 1, HaCaT cells were pre-treated with morin and semicarbazone at the selected concentrations for 4 h and then irradiated with UVB radiation at 50 mJ/cm^2. After 45 min, ROS levels were measured using the dichlorodihydrofluorescein-diacetate technique. […] The results were expressed as a percentage with respect to the irradiated cell control and the bars represented mean ± SEM (n=4).
This decrease was slightly greater with the fucoxanthin+morin semicarbazone mixture at the 1.25-1.25 µM and 2.5-2.5 µM combinations (41% reduction) (Figure 5C) than with fucoxanthin+morin (33% and 37% reduction, respectively) (Figure 5B). […] The results were expressed as a percentage with respect to the irradiated control cells and the bars represented mean ± SEM (n = 4).

[1] = ABTS antioxidant capacity, Trolox curve as reference control; format: biochemical; conditions: ABTS technique
Procedure: First, the antioxidant capacity of the compounds was determined directly using the ABTS technique (2,2-azino-bis-3-benzo-thiazoline-6-sulfonic acid) at different concentrations of the compounds (morin and the compounds of Example 1), using as a reference control a curve of increasing concentrations of Trolox. […] Table 1. Antioxidant capacity of compounds

[2] = UV-vis absorption spectra (molar extinction coefficient); format: physicochemical; conditions: UV-vis 200-500 nm; improvement relative to morin
Text: As experimental evidence of the improvement in the photoprotective capacity of compounds synthesized in Example 1, a comparison was made of the absorption capacity in the UV-vis range between morin and nitrogen derivatives (Schiff bases).
The tangible improvement with chemical modification for the compounds synthesized in Example 1 is evident by comparing the molar extinction coefficient (ε) values. […] In a further analysis, it can be seen that the εmax of morin oxime is 60% better than that of morin, and εmax of morin semicarbazone is 40% better than that of morin. […] Therefore, an improvement can be achieved in the optimization of active ingredients used in the preparation of compositions, the purpose of which is directed towards photoprotection and a photoabsorbent flavonoid is contemplated in said formulation.

[3] = Solubility of the isolated crystals; format: physicochemical; conditions: solvents in words
Procedure: For the preparation of morin oxime, 0.03 g of morin dissolved in 5 mL of MeOH were used, 0.0206 g of hydroxylamine hydrochloride and 0.0206 g of sodium acetate were added. The mixture was left under constant stirring and reflux for 2.5 hours. After this time, the crude product of the reaction was tempered and poured onto wet ice generating a precipitate, which was washed with dichloromethane and methanol obtaining a yellow solid in 60% yield. […] 6.45 dd (J = 8.5; 2.1 Hz). 6.39 d (J = 2.1 Hz). 6.34 d (J = 1.9 Hz). 6.16 d (J = 1.9 Hz). NMR of ^13C δ 102.9. 122.0. 122.0. 144.3. 149.1. 149.4. 152.8. 153.1. 154.7. 155.9. 84.5. 89.5. 95.5. 95.5. 99.5. UV (EtOH) λmax (log ε) 210 (4.6). 265 (4.2). 390 (4.4). The preparation of the compound can be carried out using the above-mentioned method with 0.1 g of morin, 0.07 g of hydroxylamine hydrochloride and 0.07 g of sodium acetate.
For the preparation of morin semicarbazone, 0.03 g of morin dissolved in 5 mL of MeOH was used, 0.0332 g of semicarbazide hydrochloride and 0.0332 g of sodium acetate were added. The mixture was left under constant stirring and reflux for 3 hours. After this time, the crude product of the reaction was tempered and poured onto wet ice generating a precipitate, which was recovered by filtration obtaining a coffee solid in 76% yield. […] 10.71 sa. 9.77 sa. 7.22 d (J= 8.4 Hz). 6.37 d (J= 2.4 Hz). 6.33 dd (J= 8.4; 2.4 Hz). 6.28 d (J= 1.9 Hz). […]

[4] = fucoxanthin alone, highest concentration tested

## fucoxanthin [reference compound]
IL-6 (Interleukin-6); [4]
  IL-6 production reduction: 30%
ROS; [4]
  ROS reduction: 34%

## Cc1c(C)c2c(c(C)c1O)CCC(C)(C(=O)O)O2 (stereo not shown) [Trolox, reference compound]
[1]
  EC50: 20.8 ± 0.811 µM
  Trolox equivalency (EC50 sample/EC 50 Trolox): 1

## NC(=O)NN=c1c(O)c(-c2ccc(O)cc2O)oc2cc(O)cc(O)c12 [Morin semicarbazone, 2-(2-(2,4-dihydroxyphenyl)-3,5,7-trihydroxy-4H-chromen-4-ylidene)hydrazine-1-carboxamide]
[2]
  εmax better than that of morin: 40%
[1]
  EC50: 12.3 ± 0.922 µM
  Trolox equivalency (EC50 sample/EC 50 Trolox): 0.590
IL-6 (Interleukin-6)
  reduced IL-6 levels: 28%
ROS; 10 µM, 4 h pretreatment, UVB 50 mJ/cm^2, 45 min, vs irradiated cell control
  reduced ROS production: up to 20%
[3]
  solubility: solubility in AcOEt, acetone, MeOH

## ON=c1c(O)c(-c2ccc(O)cc2O)oc2cc(O)cc(O)c12 [Morin oxime, 2-(2,4-dihydroxyphenyl)-3,5,7-trihydroxy-4H-chromen-4-one oxime]
[2]
  εmax better than that of morin: 60%
[1]
  EC50: 13.7 ± 0.768 µM
  Trolox equivalency (EC50 sample/EC 50 Trolox): 0.658
IL-6 (Interleukin-6)
  reduced IL-6 levels: 45%
[3]
  solubility: soluble in AcOEt, acetone, MeOH, and partially soluble in water

## O=c1c(O)c(-c2ccc(O)cc2O)oc2cc(O)cc(O)c12 [Morin, 2-(2,4-dihydroxyphenyl)-3,5,7-trihydroxy-4H-chromen-4-one]
[1]
  EC50: 10.8 ± 2.21 µM
  Trolox equivalency (EC50 sample/EC 50 Trolox): 0.517
IL-6 (Interleukin-6)
  reduced IL-6 levels: 16%
ROS; all concentrations tested, 4 h pretreatment, UVB 50 mJ/cm^2, 45 min
  ROS levels (result in words): failed to reduce ROS levels at any of the concentrations tested

Source: patent publication EP4752137A1, “NEW COMPOUNDS DERIVED FROM MORIN, METHOD FOR OBTAINING THEM AND THEIR USES” (Universidad de Sevilla, priority 2023, dated 2025)
